Tests used:
[1] = test system: CD4^+ T cells; assay: T cell proliferation assay (CFSE-labeled CD4+ T cells co-cultured with pre-treated Ly6G+ cells); type: cell-based, mice; conditions: Ly6G+ cells pre-treated 10 μM, 1 hour; co-culture 4 days; DMSO control
Method: (§1) Isolation of Bone Marrow Lymphocyte Antigen 6 Member G—Positive (Ly6G^+) Cell Ly6G^+ cells were isolated by magnetic bead sorting. For CPI-613 (also known as Devimistat; a pyruvate dehydrogenase inhibitor) treatment, freshly isolated Ly6G^+ cells were pre-treated with DMSO or 10 μM CPI-613 at 37° C. for 1 hour, and then co-cultured with Cluster of Differentiation 4 Protein-positive […] (CD4^+ T cells) or co-injected with B16 melanoma cells for further analysis.
T cell Proliferation Assay CD4^+ T cells were isolated from the spleen and labeled with carboxyfluorescein succinimidyl ester (CFSE) as previously described. CFSE-labeled CD4^+ T cells were co-cultured with Ly6G^+ cells in 96-well plates pre-coated with anti-CD3 mAb (2 μg/mL) (145-2C11, cat #553057) and anti-CD28 mAb (5 μg/mL) (37.51, cat #553295) (acquired from BD Biosciences) at 37° C., 5% CO2, for 4 days. The ratio of Ly6G^+ cells to CD4^+ T cells was 1:5. Proliferation of CD4^+ T cells was evaluated as CFSE dilution by flow cytometry analysis.

[2] = test system: B16 melanoma cells; assay: In vitro co-culture of Ly6G+ cells and B16 melanoma cells; type: cell-based, murine; conditions: Ly6G+ cells pre-treated 10 μM; co-culture 72 hours
Method: (§2) In Vitro Co-Culture of Ly6G^+ and Tumor Cells B16 melanoma or LLC cells were harvested, resuspended, and adjusted to density at 5×10^4 cells/mL. Isolated Ly6G^+ cells with or without 10 μM CPI-613 pre-treatment were prepared at the cell density of 5×10^6 cells/mL. One hundred microliter of Ly6G^+ cells and 100 μL of B16 melanoma/LLC cells were mixed, and seeded into a well of 96-well plates in DMEM supplemented with 10% FBS. Seventy-two hours later, unattached Ly6G^+ cells were removed by washing with PBS, and the number of attached B16 melanoma/LLC cells was counted. Morphologically, Ly6G^+ cells are much smaller than B16 melanoma/LLC cells for exclusion.
(§3) Small Interfering RNA Transfection Before transfection, Ly6G^+ cells were seeded into 96-well plates at a density of 1×10^6 cells/well. For small interfering RNA (siRNA)-mediated gene knockdown, 50 nmol/L of PDH siRNA (containing a mixture of three independent siRNAs targeting different regions of PDH) or control siRNA was transfected into Ly6G^+ cells with DharmaFECT Transfection Reagent I, chemical formulation for transfection, (acquired from Dharmacon) according to the manufacturer's protocol. After 24 hours of transfection, cells were harvested for further analysis.

[3] = test system: B16 melanoma cells; assay: Subcutaneous co-injection of pre-treated Ly6G+ cells with B16 melanoma cells, tumor growth; type: in vivo; conditions: Ly6G+ cells pre-treated 10 μM 1 hour, co-injected with B16 melanoma cells into Lal+/+ recipient mice; tumor size at 10 days
Method: Subcutaneous Injection of Tumor Cells into Lal^+/+ Mice To study the effect of Ly6G^+ cells on tumor growth, isolated 1×10^6 Ly6G^+ cells from Lal^+/+ or Lal^−/− mice were pre-treated with DMSO or 10 μM CPI-613 for 1 hour, mixed with 2×10^5 B16 melanoma cells, and the cell mixture was injected subcutaneously at the flank region of Lal^+/+ recipient mice. The tumor growth was monitored twice a weck. The tumor volume (mm^3) was estimated by measuring the maximal length (L) and width (W) of a tumor and calculated using the formula: (length×width^2)/2. For tumor-bearing myeloid-derived suppressor cells (MDSCs) experiments, Lal^+/+ or Lal^−/− mice were injected with 1×10^6 B16 melanoma cells at flank sites on two sides. Fourteen days later, the mice were sacrificed. Tumor tissues were harvested, digested for single cell preparation, and stained for flow cytometry analysis of the CD11b^+Ly6G^+ cells.

[4] = test system: PD-L1; assay: PD-L1 expression in Ly6G+ cells after in vivo CPI-613 treatment, flow cytometry; design: species or system mice; conditions: 5 mg/kg on days 0, 2, 4, 7; day 8; PD-L1+ cells in Ly6G+CD11c+ cells
Method: FIG. 3J measures PD-L1^+ cells of Ly6G^+ CD11c^+ cells isolated from Lal^+/+ and Lal^−/− mice. Mice received 5 mg/kg CPI-613 on days 0, 2, 4, and 7. On day 8, the percentage of PD-L1^+ cells in Ly6G^+ CD11c^+ cells was measured by flow cytometry analysis.
(§4) Flow Cytometry Analysis For analyses of percentages of CD11b^+Ly6G^+ (integrin alpha M-positive/Ly6G positive) and Ly6G^+Ly6C^+ (Ly6G positive/lymphocyte antigen 6 C1-positive) cells, single cells harvested from the bone marrow of Lal^+/+ and Lal^−/− mice were stained with APC eFluor 780-conjugated, dye, anti-Ly6G antibody (1A8-Ly6g, cat #47-9668-82), FITC (fluorescein isothiocyanate)-conjugated anti-CD11b antibody (M1/70, cat #11-0112-82), and PE (phycocrythrin)-conjugated anti-Ly6C antibody (HK1.4, cat #12-5932-82) at 4° C. for 15 minutes. All antibodies were acquired from eBioscience, San Diego, CA. For analysis of PD-L1 expression in Ly6G^+ cells, cells were stained with APC eFluor 780-conjugated anti-Ly6G antibody, PE-conjugated anti-CD11c (integrin alpha X) antibody (N418, cat #12-0114-82) (acquired from eBioscience), and PE-Cy7 (cyanine 7)-conjugated anti-PD-L1 antibody (10F.9G2, cat #124314) (acquired from Biolegend) at 4° C. for 15 minutes. Cells were washed with PBS, then were ready for flow cytometry analysis.

[5] = test system: CD11b^+Ly6G^+ cells; assay: CD11b+Ly6G+ population in bone marrow after CPI-613 injection, flow cytometry; type: in vivo; conditions: Lal−/− mice, 5 mg/kg on days 0, 2, 4, 7; measured day 8; DMSO control
Method: Mice received 5 mg/kg CPI-613 (PDH inhibitor) on days 0, 2, 4, and 7. On day 8, the CD11b^+Ly6G^+ population in the bone marrow was determined by flow cytometry. DMSO (dimethyl sulfoxide) was used as a control.
as §4

[6] = test system: Ly6G^+ cells; assay: Reactive oxygen species (ROS) measurement in Ly6G+ cells by flow cytometry; type: cell-based, mice; conditions: CPI-613 treatment; versus Lal+/+ Ly6G+ cells
Method: as §1
Reactive Oxygen Species (ROS) Measurement The ROS level in Ly6G^+ cells was measured by flow cytometry as previously described. Ly6G^+ cells from Lal^+/+ and Lal^−/− mice with or without CPI-613 pre-treatment were collected and stained with APC eFluor 780-conjugated anti-Ly6G antibody, FITC-conjugated anti-CD11b antibody and 2 μmol/L 2′, 7′-dichlorofluorescein diacetate (acquired from Invitrogen, Carlsbad, CA) at 37° C. for 30 minutes. After PBS washing, the ROS level in Ly6G^+ cells was analyzed using an LSRII machine.
Small Interfering RNA Transfection Before transfection, Ly6G^+ cells were seeded into 96-well plates at a density of 1×10^6 cells/well. […]

[7] = test system: Lewis lung carcinoma (LLC) cells; assay: In vitro co-culture of Ly6G+ cells and LLC cells; type: cell-based, murine; conditions: Ly6G+ cells pre-treated 10 μM; co-culture 72 hours
Method: as §2, §3

[8] = test system: lysosomal acid lipase (LAL); assay: Human leucocytes incubated with LAL inhibitor, MDSC subsets by flow cytometry; type: cell-based; conditions: leucocytes from healthy subjects, 10 μM, 24 hours
Method: Human leucocytes from healthy individuals were incubated with 10 μM Lalistat2, an LAL inhibitor (L) or DMSO (S) for 24 hours; control group (C) were not treated. After 24 hours, cells were analyzed by flow cytometry.
Human Blood Samples The blood donor characteristics of the human blood samples of normal subjects and non-small-cell lung cancer (NSCLC, at stage III-IV) patients is described in TABLE 8. NSCLC patients were selected by screening with Programmed death-ligand 1 (PD-L1) Tumor Proportion Score (TPS)≥10%. Both normal subjects and NSCLC patients include male and female, White and African American. To inhibit lysosomal acid lipase (LAL) activity, human blood cells from healthy participants had the red blood cells (RBCs) removed with lysis buffer acquired from Biolegend (San Diego, CA); washed with phosphate buffered saline (PBS) by centrifugation at 240×g for 5 minutes at room temperature; and then incubated with 10 μM LAL inhibitor Lalistat2, acquired from Cayman, Ann Arbor, MI) for 24 hours. As a control, human blood cells were incubated with dimethyl sulfoxide (DMSO).
For flow cytometry analysis of human blood samples, human blood cells had the RBCs removed, washed with PBS, and stained with APC-eFluor 780-conjugated anti-CD11b antibody (ICRF44, cat #47-0118-42), FITC-conjugated anti-CD13 (aminopeptidase N) antibody (WM15, cat #11-0138-42), PE-conjugated anti-CD14 antibody (61D3, cat #12-0149-42), APC-conjugated anti-CD15 (Lewis X) antibody (MMA, cat #17-0158-42), PE-conjugated anti-CD33 antibody (HIM3-4, cat #12-0339-42), PE-Cy7-conjugated anti-HLA-DR (major histocompatibility complex, class II) antibody (L243, cat #25-9952-42) (all acquired from eBioscience) at 4° C. for 15 minutes. Cells were then washed with PBS, fixed with 1% paraformaldehyde, and prepared for flow cytometry analysis. To analyze LAL levels, cells were further fixed and permeabilized using BD Cytofix/Cytoperm Fixation/Permeabilization Kit, cell fixation and permeabilization kit, and incubated with non-fluorescence conjugated anti-LAL antibody at 4° C. overnight. […]

Row | induction of CD11b+CD15+HLA-DR− MDSC subset [8] | percentage of CD11b+CD13+HLA-DR− MDSC subset [8] | percentage of CD11b+CD14+HLA-DR− MDSC subset [8] | SMILES | Lal−/− Ly6G+ cells' suppressive activity on T cell proliferation [1] | capability of Lal−/− Ly6G+ cells in promoting tumor cell proliferation, B16 melanoma [2] | capability of Lal−/− Ly6G+ cells in stimulating tumor growth [3] | PD-L1 expression in Lal−/− Ly6G+ cells [4] | Lal−/− CD11b+Ly6G+ cells (percentage in bone marrow) [5] | overproduction of ROS in Lal−/− CD11b+Ly6G+ cells [6] | capability of Lal−/− Ly6G+ cells in promoting tumor cell proliferation, LLC [7]
1 |  |  |  | O=C(O)CCCCC(CCSCc1ccccc1)SCc1ccccc1 (stereo not shown) [CPI-613] | reversed | reduced capabilities | reduced capabilities | effectively reduced | reduced | significantly reversed | reduced capabilities
2 | did not reach statistical significance | increased | increased | O=C(Oc1nsnc1N1CCCCC1)N1CCCCC1 [Lalistat2] |  |  |  |  |  |  | 
